Experimental data taken from PubChem BioAssay (NCI).
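Each compound was tested at five concentrations against cells in 96-well plates for 48 hours. At the GI50, growth is halved. TGI denotes the concentration required for complete inhibition of growth.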

Tests used:
Test in all cases: inhibition of tumour cell growth, NCI panel, 48 h
A549 NSCLC = system: A549 NSCLC
HOP-62 NSCLC = system: HOP-62 NSCLC
M14 melanoma = system: M14 melanoma
MDA-MB-435 = system: MDA-MB-435
NCI-H226 lung = system: NCI-H226 lung
SN12C renal = system: SN12C renal
SR leukemia = system: SR leukemia
T-47D breast = system: T-47D breast
DLD-1 colon = system: DLD-1 colon
DMS 114 small cell lung = system: DMS 114 small cell lung
DMS 273 small cell lung = system: DMS 273 small cell lung
M19-MEL melanoma = system: M19-MEL melanoma

C[n+]1cccc(/C=C/c2ccc3cccc(O)c3n2)c1
TGI (A549 NSCLC): > 100 µM
TGI (HOP-62 NSCLC): > 100 µM
TGI (M14 melanoma): > 100 µM
TGI (MDA-MB-435): > 100 µM
TGI (NCI-H226 lung): > 100 µM
TGI (SN12C renal): > 100 µM
TGI (SR leukemia): > 100 µM
TGI (T-47D breast): > 100 µM

CC(C)CNc1nc(N)[nH]c(=O)c1NC=O
TGI (A549 NSCLC): > 100 µM
TGI (HOP-62 NSCLC): > 100 µM
TGI (M14 melanoma): > 100 µM
TGI (MDA-MB-435): > 100 µM
TGI (NCI-H226 lung): > 100 µM
TGI (SN12C renal): > 100 µM
TGI (T-47D breast): > 100 µM

COc1ccc(CNc2nc(NCc3ccc(OC)cc3)nc(NC(C)C)n2)cc1
TGI (A549 NSCLC): 33.7 µM
TGI (HOP-62 NSCLC): 37.5 µM
TGI (M14 melanoma): 16.7 µM
TGI (MDA-MB-435): 11.2 µM
TGI (SR leukemia): > 100 µM
TGI (T-47D breast): > 100 µM

NCS(=O)(=O)O
TGI (A549 NSCLC): > 100 µM
TGI (HOP-62 NSCLC): > 100 µM
TGI (M14 melanoma): > 100 µM
TGI (MDA-MB-435): > 100 µM
TGI (NCI-H226 lung): > 100 µM
TGI (SN12C renal): > 100 µM
TGI (T-47D breast): > 100 µM

Cn1cnc([N+](=O)[O-])c1SCC(=O)O
TGI (A549 NSCLC): > 100 µM
TGI (HOP-62 NSCLC): > 100 µM
TGI (M14 melanoma): > 100 µM
TGI (MDA-MB-435): > 100 µM
TGI (NCI-H226 lung): > 100 µM
TGI (SN12C renal): > 100 µM
TGI (SR leukemia): > 100 µM
TGI (T-47D breast): > 100 µM

CCOC(=O)c1c2c(c(O)c3ccccc3c(O)n(-c3ccc(C)cc3)c1C)C(=O)C=CC2=O
TGI (A549 NSCLC): > 100 µM
TGI (HOP-62 NSCLC): 61.7 µM
TGI (M14 melanoma): 44.8 µM
TGI (MDA-MB-435): 35.7 µM
TGI (NCI-H226 lung): > 100 µM
TGI (SN12C renal): 58.9 µM
TGI (T-47D breast): 39.4 µM

COc1cnc2c(c1)C(=O)c1c-2n(CCCN2CCNCC2)c(=O)c2cc(Cl)ccc12
GI50 (MDA-MB-435): 1.25 µM
TGI (MDA-MB-435): 2.59 µM
GI50 (NCI-H226 lung): 1.04 µM
TGI (NCI-H226 lung): 4.91 µM
GI50 (T-47D breast): 8.98 µM
TGI (T-47D breast): 50.3 µM

N=C(N)c1ccc(-c2ccc(-c3ccc(Cl)cn3)s2)cc1
GI50 (M14 melanoma): 1.77 µM
TGI (M14 melanoma): 3.24 µM
GI50 (MDA-MB-435): 1.65 µM
TGI (MDA-MB-435): 3.02 µM
GI50 (NCI-H226 lung): 2.76 µM
TGI (NCI-H226 lung): 12 µM

CCOC(=O)C1=C(C)N(C)C(=S)NC1c1cccc(O)c1 (stereo not given)
TGI (A549 NSCLC): > 100 µM
TGI (HOP-62 NSCLC): > 100 µM
TGI (M14 melanoma): 83.1 µM
TGI (MDA-MB-435): 34.9 µM
TGI (NCI-H226 lung): > 100 µM
TGI (SN12C renal): > 100 µM
TGI (SR leukemia): 57.3 µM
TGI (T-47D breast): > 100 µM

CC(C)(C)C1CCC2(CC1)CCN(CCCN1CCOCC1)CC2
TGI (A549 NSCLC): > 88.8 µM
TGI (DLD-1 colon): > 100 µM
TGI (DMS 114 small cell lung): 33.9 µM
TGI (DMS 273 small cell lung): 38.3 µM
TGI (HOP-62 NSCLC): > 57.8 µM
TGI (M14 melanoma): 27.8 µM
TGI (M19-MEL melanoma): 25.9 µM
TGI (MDA-MB-435): > 100 µM
TGI (NCI-H226 lung): > 100 µM
TGI (SN12C renal): > 100 µM
TGI (SR leukemia): > 100 µM
TGI (T-47D breast): > 100 µM

O=C(c1cc(Br)ccc1O)c1cc(Br)ccc1O
TGI (A549 NSCLC): 32 µM
TGI (HOP-62 NSCLC): 34.3 µM
TGI (M14 melanoma): 29.1 µM
TGI (MDA-MB-435): 29.3 µM
TGI (NCI-H226 lung): 42 µM
TGI (SN12C renal): 32.6 µM
TGI (T-47D breast): 29.2 µM

COc1cc2ccc1-c1cc(ccc1O)CC1c3cc4c(cc3CCN1C)Oc1c(OC)cc3c(c1O4)C(C2)N(C)CC3 (stereo not given)
TGI (A549 NSCLC): 3.41 µM
TGI (DLD-1 colon): 5.27 µM
TGI (DMS 114 small cell lung): 3.48 µM
TGI (DMS 273 small cell lung): 3.27 µM
TGI (HOP-62 NSCLC): 3.65 µM
TGI (M14 melanoma): 3.32 µM
TGI (M19-MEL melanoma): 3.36 µM
TGI (NCI-H226 lung): 4.08 µM
TGI (SN12C renal): 3.96 µM
TGI (SR leukemia): 4 µM

CN(C)CCNC(=O)c1cccc2nc3c4ccccc4c4ccccc4c3nc12
TGI (A549 NSCLC): 12.2 µM
TGI (DLD-1 colon): 2.9 µM
TGI (DMS 273 small cell lung): > 100 µM
TGI (HOP-62 NSCLC): 34.2 µM
TGI (M14 melanoma): 4.97 µM
TGI (M19-MEL melanoma): 3.4 µM
TGI (MDA-MB-435): 3.42 µM
TGI (NCI-H226 lung): 28.1 µM
TGI (SN12C renal): 3.64 µM
TGI (SR leukemia): 13 µM
TGI (T-47D breast): 34.1 µM

C[C@H]1CCC/C=C/[C@@H]2C[C@H](O)C[C@H]2[C@H](O)[C@@H](S(=O)CCN)CC(=O)O1 (stereo not given in full)
GI50 (A549 NSCLC): 0.0402 µM
TGI (A549 NSCLC): > 100 µM
GI50 (HOP-62 NSCLC): 0.13 µM
TGI (HOP-62 NSCLC): > 58.9 µM
GI50 (M14 melanoma): 0.0294 µM
GI50 (MDA-MB-435): 0.0513 µM
TGI (MDA-MB-435): > 92.8 µM
GI50 (NCI-H226 lung): 0.041 µM
TGI (NCI-H226 lung): 0.199 µM
GI50 (SN12C renal): 0.085 µM
TGI (SN12C renal): 0.472 µM
GI50 (T-47D breast): 0.116 µM
TGI (T-47D breast): 0.544 µM

Cc1c2ccnc(-c3ccccc3)c2cc2c1[nH]c1ccccc12
TGI (A549 NSCLC): 10.3 µM
TGI (DLD-1 colon): 16.1 µM
TGI (DMS 114 small cell lung): 4.82 µM
TGI (DMS 273 small cell lung): 4.06 µM
TGI (HOP-62 NSCLC): 6.61 µM
TGI (M19-MEL melanoma): 8.48 µM
TGI (NCI-H226 lung): 5.23 µM
TGI (SN12C renal): 7 µM

COc1cc2c(cc1OC)C(Cl)C(c1ccc(Cl)cc1)=C2Cl (stereo not given)
TGI (DLD-1 colon): 37.8 µM
TGI (DMS 114 small cell lung): 28.6 µM
TGI (DMS 273 small cell lung): 41.6 µM
TGI (M14 melanoma): 33.6 µM
TGI (M19-MEL melanoma): 41.3 µM
TGI (NCI-H226 lung): 50.6 µM
TGI (SN12C renal): 48.6 µM

O=C(CC1(O)C(=O)Nc2ccc(Br)cc21)c1ccc(C(=O)NCC2CCC3(CC2)OOC2(CCCCC2)OO3)cc1 (stereo not given)
GI50 (A549 NSCLC): 4.3 µM
TGI (A549 NSCLC): > 100 µM
GI50 (HOP-62 NSCLC): 11 µM
TGI (HOP-62 NSCLC): 40.7 µM
GI50 (M14 melanoma): 8.68 µM
TGI (M14 melanoma): 63.4 µM
GI50 (NCI-H226 lung): 4.7 µM
TGI (NCI-H226 lung): 30 µM
GI50 (SN12C renal): 10.4 µM
TGI (SN12C renal): 34.9 µM
GI50 (T-47D breast): 2.69 µM
TGI (T-47D breast): 24.4 µM

Cc1cc(=O)[nH]c(NN2C(Cl)C(=O)C2c2cccc([N+](=O)[O-])c2)n1 (stereo not given)
TGI (A549 NSCLC): > 100 µM
TGI (DMS 114 small cell lung): 55.4 µM
TGI (DMS 273 small cell lung): 31.2 µM
TGI (HOP-62 NSCLC): > 100 µM
TGI (M14 melanoma): 32.2 µM
TGI (M19-MEL melanoma): 49.1 µM
TGI (NCI-H226 lung): 46.9 µM
TGI (SN12C renal): 37.6 µM
TGI (SR leukemia): 57.8 µM

Cc1ccc(C)c(/C(=N\N=C(N)N)C2CC2)c1
TGI (A549 NSCLC): > 100 µM
TGI (HOP-62 NSCLC): > 100 µM
TGI (M14 melanoma): > 100 µM
TGI (MDA-MB-435): 63.9 µM
TGI (NCI-H226 lung): > 100 µM
TGI (SN12C renal): > 100 µM
TGI (SR leukemia): > 100 µM
TGI (T-47D breast): > 100 µM

COc1ccc(-n2c3c(c4cc(O)ccc42)C(=O)c2ccccc2C3=O)cc1
TGI (A549 NSCLC): > 100 µM
TGI (HOP-62 NSCLC): 12.7 µM
TGI (M14 melanoma): > 100 µM
TGI (MDA-MB-435): > 100 µM
TGI (SN12C renal): 92.9 µM
TGI (SR leukemia): 56.9 µM
TGI (T-47D breast): > 100 µM

Oc1cc(O)cc(/C=C/c2ccc(O)c(O)c2)c1
TGI (A549 NSCLC): 53.4 µM
TGI (DLD-1 colon): > 31.6 µM
TGI (DMS 114 small cell lung): 22.1 µM
TGI (DMS 273 small cell lung): 38.9 µM
TGI (HOP-62 NSCLC): 28.7 µM
TGI (M19-MEL melanoma): 41.7 µM
TGI (NCI-H226 lung): 42.1 µM
TGI (SN12C renal): 40.8 µM

CN(C)c1ccc(C2CC(=O)C(C#N)=C(c3ccccc3)NN2C)cc1 (stereo not given)
TGI (A549 NSCLC): > 100 µM
TGI (DLD-1 colon): > 100 µM
TGI (DMS 114 small cell lung): > 100 µM
TGI (HOP-62 NSCLC): 62.5 µM
TGI (M14 melanoma): 35.5 µM
TGI (NCI-H226 lung): > 100 µM
TGI (SN12C renal): > 100 µM
TGI (SR leukemia): > 100 µM

CC[C@H](Nc1nc(N)nc(N)c1Cl)c1nc2cccc(NCc3ccc(C(=O)NO)cc3)c2c(=O)n1-c1ccccc1
GI50 (A549 NSCLC): 2.33 µM
TGI (A549 NSCLC): 5.73 µM
GI50 (HOP-62 NSCLC): 1.67 µM
TGI (HOP-62 NSCLC): 4.04 µM
GI50 (MDA-MB-435): 1.7 µM
TGI (MDA-MB-435): 3.4 µM
GI50 (SN12C renal): 1.78 µM
TGI (SN12C renal): 4.78 µM
GI50 (SR leukemia): 0.579 µM
TGI (SR leukemia): > 100 µM
GI50 (T-47D breast): 2.15 µM
TGI (T-47D breast): 10.7 µM

Cc1ncc(CO)c(CN)c1O
TGI (A549 NSCLC): > 100 µM
TGI (HOP-62 NSCLC): > 100 µM
TGI (M14 melanoma): > 100 µM
TGI (MDA-MB-435): > 100 µM
TGI (NCI-H226 lung): > 100 µM
TGI (SN12C renal): > 100 µM
TGI (T-47D breast): > 100 µM

O=C1c2ccccc2C(=O)c2c(NCCNC(=O)C3CCCN3)ccc(NCCNC(=O)C3CCCN3)c21 (stereo not given)
TGI (A549 NSCLC): > 100 µM
TGI (HOP-62 NSCLC): > 100 µM
TGI (M14 melanoma): > 100 µM
TGI (MDA-MB-435): > 100 µM
TGI (NCI-H226 lung): > 100 µM
TGI (SN12C renal): > 100 µM
TGI (SR leukemia): 66.8 µM
TGI (T-47D breast): > 100 µM
